Results from patent US9872859B2, “Materials and methods for targeting therapeutic compositions to gut-associated lymphoid tissue (GALT)” (THE FLORIDA INTERNATIONAL UNIVERSITY BOARD OF TRUSTEES, priority 2016, dated 2018).

Tests used:
[1] = tested on: HIV-1 1Ba-L; assay: Anti-HIV activity in HIV-infected primary human macrophages (p24 ELISA); format: cell-based; conditions: 70 ug/ml
Text: The nanodrug was further investigated for anti-HIV activity in primary human macrophage and M-cell culture model, respectively. Human peripheral blood mononuclear cells (PBMC) were isolated from healthy donor and differentiated to macrophages as per previously published protocol^23. Briefly, PBMC were isolated with Ficoll-Hypaque (Pharmacia) gradient and cells were allowed to differentiate for 7 days in the presence of human macrophage colony stimulating factor (MCSF, Sigma) to macrophages. Following 7 days of incubation, macrophages were infected with HIV-1 1Ba-L (NIH AIDS research and reference reagent program. Cat#510) (100 ng/ml) and incubated for 24 hrs. The next day, cells were thoroughly washed to get rid of any unattached virus particle and fresh media was added. At the same time, same concentration (70 ug/ml) of nanodrug and unformulated drug (EFV) were added to these cells separately. The HIV infected macrophages were served as control. The nanodrug/EFV drug treated cells were monitored for up to 10 days along with infected control cells. The cell supernatant was collected at day 0, 1, 3, 5, 7 and 10 days post treatment. The viral p24 level in the supernatant was measured with p24 ELISA assay (Cat. #0801200, Zeptometrix, USA). The minimum assay detection limit for p24 antigen by ELISA was 7.8 pg/ml as provided by the manufacturer. […]

[2] = tested on: HIV-1Ba-L; assay: Anti-HIV activity in in vitro M-cell culture model with HIV-infected Raji cells (p24 ELISA); format: cell-based; conditions: 70 ug/ml; for HIV replication (p24 level in culture supernatant) over time: infected Raji cells
Method: The nanodrug was further investigated for anti-HIV activity in primary human macrophage and M-cell culture model, respectively. Simultaneously, a parallel anti-HIV activity study was set up in an in vitro model of M-cell. In this model, Raji cells were exposed with HIV-1Ba-L at the concentration of (100 ng/ml) for 24 hrs in a co-culture and then washed from unattached viral particles^24,25. Following that, same concentration (70 ug/ml) of nanodrug and EFV were added to M-cell culture model separately. […] The untreated Raji cells were kept as a control for all the experiments related to drug activity. In the M-cell culture model, infected Raji cells were also treated with EFV to compare with nanodrug. The effect of nanodrug on HIV replication was measured for up to 10 days post treatment in culture supernatant.

O=C1Nc2ccc(Cl)cc2[C@@](C#CC2CC2)(C(F)(F)F)O1 [EFV, efavirenz]
HIV replication (p24 level in culture supernatant) over time ([1]; day 0-10 post treatment): immediate inhibition of viral replication on day 1 and following that there was increase of viral p24 level
p24 level at end of experiment ([1]; day 10): increased up to the level of untreated cells
p24 level within day 10 ([2]; day 10): increased closer to the level of untreated cells
HIV replication (p24 level in culture supernatant) over time ([2]; up to day 10): immediate reduction of viral replication
HIV replication (p24 level in culture supernatant) over time ([2]; up to day 10, listed as free EFV): immediate decrease in viral replication as expected; however, rebound of viral p24 level within day ten
